According to the NIST ThermoML archive (doi:10.1016/j.jct.2012.11.027):
Numbers after ± are expanded uncertainties.

Assay: xn = mol fraction of the nth substance listed
Conditions: 101 kPa, Liquid, Linear variable-path acoustic interferometer

C=CC(=O)OC [methyl propenoate] + CCCCO
speed of sound [m/s]
Conditions | 288.15 K | 293.15 K | 298.15 K | 303.15 K | 308.15 K | 313.15 K | 318.15 K
x1 = 0.0777 | 1271.2 ± 1.9 | 1250.8 ± 1.9 | 1230.5 ± 1.8 | 1212.8 ± 1.8 | 1193.9 ± 1.8 | 1174.9 ± 1.8 | 1155 ± 1.8
x1 = 0.1555 | 1261.3 ± 1.9 | 1240.6 ± 1.8 | 1220.1 ± 1.8 | 1202.2 ± 1.8 | 1182.9 ± 1.8 | 1163.7 ± 1.8 | 1143.8 ± 1.8
x1 = 0.2273 | 1253.3 ± 1.9 | 1232.6 ± 1.8 | 1212.2 ± 1.8 | 1194.2 ± 1.8 | 1174.7 ± 1.8 | 1155.5 ± 1.8 | 1135.6 ± 1.7
x1 = 0.299 | 1247 ± 1.8 | 1226.3 ± 1.8 | 1205.9 ± 1.8 | 1187.7 ± 1.8 | 1167.9 ± 1.8 | 1148.7 ± 1.8 | 1128.7 ± 1.7
x1 = 0.3791 | 1241.3 ± 1.8 | 1220.5 ± 1.8 | 1200.2 ± 1.8 | 1181.7 ± 1.8 | 1161.6 ± 1.8 | 1142.2 ± 1.7 | 1122.1 ± 1.7
x1 = 0.4593 | 1236.9 ± 1.8 | 1216.1 ± 1.8 | 1195.7 ± 1.8 | 1176.8 ± 1.8 | 1156.4 ± 1.8 | 1136.8 ± 1.7 | 1116.5 ± 1.7
x1 = 0.5344 | 1233.9 ± 1.8 | 1212.8 ± 1.8 | 1192.4 ± 1.8 | 1173.1 ± 1.8 | 1152.4 ± 1.7 | 1132.5 ± 1.7 | 1111.9 ± 1.7
x1 = 0.6095 | 1231.7 ± 1.8 | 1210.5 ± 1.8 | 1189.9 ± 1.8 | 1170.3 ± 1.8 | 1149.2 ± 1.7 | 1128.9 ± 1.7 | 1108 ± 1.7
x1 = 0.6789 | 1230.3 ± 1.8 | 1208.9 ± 1.8 | 1188.2 ± 1.8 | 1168.2 ± 1.8 | 1146.7 ± 1.7 | 1126.2 ± 1.7 | 1104.9 ± 1.7
x1 = 0.7483 | 1229.2 ± 1.8 | 1207.7 ± 1.8 | 1186.9 ± 1.8 | 1166.6 ± 1.8 | 1144.6 ± 1.7 | 1123.8 ± 1.7 | 1102.3 ± 1.7
x1 = 0.8099 | 1228.5 ± 1.8 | 1206.9 ± 1.8 | 1186 ± 1.8 | 1165.4 ± 1.8 | 1143.1 ± 1.7 | 1122.1 ± 1.7 | 1100.4 ± 1.7
x1 = 0.8715 | 1228 ± 1.8 | 1206.2 ± 1.8 | 1185.3 ± 1.8 | 1164.4 ± 1.8 | 1141.7 ± 1.7 | 1120.6 ± 1.7 | 1098.6 ± 1.7
x1 = 0.9358 | 1227.4 ± 1.8 | 1205.5 ± 1.8 | 1184.5 ± 1.8 | 1163.4 ± 1.7 | 1140.4 ± 1.7 | 1119 ± 1.7 | 1096.9 ± 1.7
x1 = 1 | 1226.6 ± 1.8 | 1204.6 ± 1.8 | 1183.6 ± 1.8 | 1162.2 ± 1.7 | 1139.1 ± 1.7 | 1117.8 ± 1.7 | 1095.7 ± 1.7
